# From patent US10793575B2, “Oxoisoquinoline derivatives” (CARNA BIOSCIENCES, INC., priority 2016, dated 2020)
# pIC50: −log10 of the molar value.
# Tests used:
# dephosphorylated BTK = dephosphorylated BTK (Homo sapiens (Human), UniProt Q06187); test: BTK Activity Inhibition Test (mobility shift assay); format: biochemical; conditions: 200 μM ATP, read-out: Inhibitory Activity on BTK
# Description: Dephosphorylated BTK was obtained by adding λ protein phosphatase (manufactured by New England BioLabs Inc., Code No. P0753S) and MnCl2 at 10 U/μg and 2 mM, respectively, to biotinylated BTK protein BTN-BTK (Manufactured by Carna Biosciences, Inc.) enzyme solution, reacting the mixture at 4° C. overnight, and removing of λ protein phosphatase by anti […]-tag antibody agarose gel chromatography, followed by buffer exchange using a 10DG Desalting Column.
# The kinase activity was measured using QuickScout Screening Assist (trade mark) MSA (commercially available kit manufactured by Carna Biosciences, Inc.) by mobility shift assay (MSA) method. The substrate of the kinase reaction was an FITC-labeled SRCtide peptide included in the kit. An assay buffer [20 mM HEPES, 0.01% Triton X-100 (Trade mark), 2 mM dithiothreitol, pH 7.5] was used and adjusted at 4 μM substrate, 20 mM MgCl2 and 200 μm ATP to obtain a substrate mixture solution. The enzyme solution was also prepared by diluting the dephosphorylated BTK to 0.46 nM using the assay buffer. The 10 mM solution of the test compound in DMSO was further diluted with DMSO to 10 levels of the concentration (0.00003 mM, 0.0001 mM, 0.0003 mM, 0.001 mM, 0.003 mM, 0.01 mM, 0.03 mM, 0.1 mM, 0.3 mM, 1 mM), each of which was subjected to a 25-fold dilution with the assay buffer to obtain the drug solutions (4% DMSO solutions). 5 μL of the drug solution or a control solution (4% DMSO-assay buffer), 5 μL of the substrate mixture solution, and 10 μL of the enzyme solution were mixed in the wells of a polypropylene 384-well plate and allowed to react at room temperature for 2 hours, and then quenched by adding 60 μL of the termination buffer included in the kit. Subsequently, the quantities of the substrates (S) and the phosphorylated substrate (P) in the reaction solution were measured using LabChip EZ Reader II system (manufactured by Caliper Life Sciences) according to the protocol of the assay kit.
# (§1) The heights of the peaks of the isolated substrate and the phosphorylated substrate were represented as S and P, respectively, and a blank which contained the assay buffer instead of the enzyme solution was also measured.
# (§2) The inhibition rate (%) of the test compound was calculated according to the following equation; Inhibition rate (%)=(1−(C−A)/(B−A))×100 • wherein, A, B and C represent P/(P+S) of the blank well, P/(P+S) of the control well and P/(P+S) of the compound-containing well, respectively.
# (§3) The IC50 value was calculated via a regression analysis of the inhibition rate (%) and the test compound concentration (logarithmic value).
# wild type BTK [BTK(WT)] = wild type BTK [BTK(WT)] (Homo sapiens (Human), UniProt Q06187); test: C481S Mutant BTK Inhibitory Activity Test, wild type BTK (mobility shift assay); format: biochemical; conditions: 120 μM ATP
# Chain of wild type BTK [BTK(WT)] (Q06187 whole entry): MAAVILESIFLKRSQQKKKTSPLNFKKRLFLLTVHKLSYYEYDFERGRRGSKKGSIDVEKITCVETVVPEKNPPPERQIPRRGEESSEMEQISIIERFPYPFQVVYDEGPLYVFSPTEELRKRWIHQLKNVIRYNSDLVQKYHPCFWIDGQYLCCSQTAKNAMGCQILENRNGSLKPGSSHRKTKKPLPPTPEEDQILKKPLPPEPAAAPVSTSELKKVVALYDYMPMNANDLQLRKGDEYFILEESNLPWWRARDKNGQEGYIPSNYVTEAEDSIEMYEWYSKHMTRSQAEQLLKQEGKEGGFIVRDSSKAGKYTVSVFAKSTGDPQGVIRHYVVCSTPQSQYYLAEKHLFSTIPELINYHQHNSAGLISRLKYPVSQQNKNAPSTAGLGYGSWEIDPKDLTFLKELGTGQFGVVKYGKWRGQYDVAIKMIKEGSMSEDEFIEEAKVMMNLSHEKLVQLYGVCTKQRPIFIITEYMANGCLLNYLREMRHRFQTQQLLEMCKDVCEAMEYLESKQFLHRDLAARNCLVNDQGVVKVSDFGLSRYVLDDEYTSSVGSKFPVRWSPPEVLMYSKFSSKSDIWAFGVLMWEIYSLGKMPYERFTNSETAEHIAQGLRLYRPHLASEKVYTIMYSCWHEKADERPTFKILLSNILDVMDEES
# Description: (§4) The kinase activity was measured using QuickScout Screening Assist (trademark) MSA (commercially available kit manufactured by Carna Biosciences, Inc.) by mobility shift assay (MSA) method. The substrate of the kinase reaction was an FITC-labeled SRCtide peptide included in the kit. […] The 10 mM solution of the test compound in DMSO was further diluted with DMSO to 10 levels of the concentration (0.00003 mM, 0.0001 mM, 0.0003 mM, 0.001 mM, 0.003 mM, 0.01 mM, 0.03 mM, 0.1 mM, 0.3 mM, 1 mM), each of which was subjected to a 25-fold dilution with the assay buffer to obtain the drug solutions (4% DMSO solutions).
# (§5) 5 μL of the drug solution or a control solution (4% DMSO-assay buffer), 5 μL of the substrate mixture solution, and 10 μL of the enzyme solution were mixed in the wells of a polypropylene 384-well plate and allowed to react at room temperature for 1 hour, and then quenched by adding 60 μL of the termination buffer included in the kit. Subsequently, the quantities of the substrates (S) and the phosphorylated substrate (P) in the reaction solution were measured using LabChip EZ Reader II system (manufactured by Caliper Life Sciences) according to the protocol of the assay kit.
# as §1, §2, §3
# [1] = biological target: C481S mutant BTK [BTK(C481S)] (Homo sapiens (Human), UniProt Q06187, C481S); test: C481S Mutant BTK Inhibitory Activity Test (mobility shift assay); format: biochemical; conditions: for pIC50: C481S mutant BTK, 100 μM ATP; for C481S mutation-resistance: IC50[BTK(C481S)]/IC50[BTK(WT)]
# Chain of C481S mutant BTK [BTK(C481S)] (Q06187 whole entry C481S): as the sequence (Q06187 whole entry) above, with C481S counted along it
# Description: as §4, §5, §1, §2, §3
# OCI-Ly10 cells = test: Proliferation-Inhibitory Test Against Diffuse Large-Cell B-Cell Lymphoma OCI-Ly10 Strain; format: cell-based; conditions: Homo sapiens, 96 hours, alamarBlue
# Summary of the method: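 Proliferation was read by alamarBlue after a 96-hour incubation. Final compound concentrations spanned 0.9 nM to 30000 nM with 0.3% DMSO. Cells were seeded at 20000 per well in IMDM containing 20% fetal bovine serum under 5% CO2.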
# Chain of dephosphorylated BTK (Q06187 whole entry): as the sequence (Q06187 whole entry) above
pIC50 (dephosphorylated BTK),pIC50 (wild type BTK [BTK(WT)]),pIC50 [1],C481S mutation-resistance [1],pIC50 (OCI-Ly10 cells),SMILES
> 8.00,9.14,8.99,1.4,7.77,"CS(=O)(=O)c1ccc(-c2cc3c(-c4cccc(-n5ccc6cc(C7CC7)cc(F)c6c5=O)c4CO)nc(N)nc3[nH]2)cc1 [Example 41, 2-(3-{2-amino-6-[4-(methylsulfonyl)phenyl]-7H-pyrrolo[2,3-d]pyrimidin-4-yl}-2-(hydroxymethyl)phenyl)-6-cyclopropyl-8-fluoroisoquinolin-1(2H)-one]"
> 8.00,9.06,8.97,1.2,7.01,"Nc1nc(-c2cccc(-n3ccc4cc(C5CC5)cc(F)c4c3=O)c2CO)c2cc(-c3cccc(F)n3)[nH]c2n1 [Example 42, 2-{3-[2-amino-6-(6-fluoropyridin-2-yl)-7H-pyrrolo[2,3-d]pyrimidin-4-yl]-2-(hydroxymethyl)phenyl}-6-cyclopropyl-8-fluoroisoquinolin-1(2H)-one]"
> 8.00,8.95,8.76,1.5,6.71,"Nc1nc(-c2cccc(-n3ccc4cc(C5CC5)cc(F)c4c3=O)c2CO)c2cc(-c3ccnc(F)c3)[nH]c2n1 [Example 43, 2-{3-[2-amino-6-(2-fluoropyridin-4-yl)-7H-pyrrolo[2,3-d]pyrimidin-4-yl]-2-(hydroxymethyl)phenyl}-6-cyclopropyl-8-fluoroisoquinolin-1(2H)-one]"
–,9.37,9.12,1.8,7.82,"CCN(CC)Cc1ccc(-c2cc3c(-c4cccc(-n5ccc6cc(C7CC7)cc(F)c6c5=O)c4CO)nc(N)nc3[nH]2)cc1 [Example 52, 2-[3-(2-amino-6-{4-[(diethylamino)methyl]phenyl}-7H-pyrrolo[2,3-d]pyrimidin-4-yl)-2-(hydroxymethyl)phenyl]-6-cyclopropyl-8-fluoroisoquinolin-1(2H)-one]"
–,9.29,9.05,1.8,7.60,"Nc1nc(-c2cccc(-n3ccc4cc(C5CC5)cc(F)c4c3=O)c2CO)c2cc(-c3ccc(CN4CCCC4)cc3)[nH]c2n1 [Example 53, 2-(3-{2-amino-6-[4-(pyrrolidin-1-ylmethyl)phenyl]-7H-pyrrolo[2,3-d]pyrimidin-4-yl}-2-(hydroxymethyl)phenyl)-6-cyclopropyl-8-fluoroisoquinolin-1(2H)-one]"
–,9.24,9.07,1.5,7.77,"Nc1nc(-c2cccc(-n3ccc4cc(C5CC5)cc(F)c4c3=O)c2CO)c2cc(-c3ccc(CN4CCCCC4)cc3)[nH]c2n1 [Example 54, 2-(3-{2-amino-6-[4-(piperidin-1-ylmethyl)phenyl]-7H-pyrrolo[2,3-d]pyrimidin-4-yl}-2-(hydroxymethyl)phenyl)-6-cyclopropyl-8-fluoroisoquinolin-1(2H)-one]"
–,9.44,9.24,1.6,8.30,"Nc1nc(-c2cccc(-n3ccc4cc(C5CC5)cc(F)c4c3=O)c2CO)c2cc(-c3ccc(CN4CCN(CCO)CC4)cc3)[nH]c2n1 [Example 61, 2-{3-[2-amino-6-(4-{[4-(2-hydroxyethyl)piperazin-1-yl]methyl}phenyl)-7H-pyrrolo[2,3-d]pyrimidin-4-yl]-2-(hydroxymethyl)phenyl}-6-cyclopropyl-8-fluoroisoquinolin-1(2H)-one]"
–,9.33,9.03,2,7.74,"Nc1nc(-c2cccc(-n3ccc4cc(C5CC5)cc(F)c4c3=O)c2CO)c2cc(-c3ccc(CN4CCNC(=O)C4)cc3)[nH]c2n1 [Example 66, 2-[3-(2-amino-6-{4-[(3-oxopiperazin-1-yl)methyl]phenyl}-7H-pyrrolo[2,3-d]pyrimidin-4-yl)-2-(hydroxymethyl)phenyl}-6-cyclopropyl-8-fluoroisoquinolin-1(2H)-one]"
–,9.60,9.24,2.3,8.10,"Nc1nc(-c2cccc(-n3ccc4cc(C5CC5)cc(F)c4c3=O)c2CO)c2cc(C3=CCS(=O)(=O)CC3)[nH]c2n1 [Example 83, 2-{3-[2-amino-6-(1,1-dioxido-3,6-dihydro-2H-thiopyran-4-yl)-7H-pyrrolo[2,3-d]pyrimidin-4-yl]-2-(hydroxymethyl)phenyl}-6-cyclopropyl-8-fluoroisoquinolin-1(2H)-one]"
–,9.39,9.09,2,8.22,"CCC(=O)N1CC=C(c2cc3c(-c4cccc(-n5ccc6cc(C7CC7)cc(F)c6c5=O)c4CO)nc(N)nc3[nH]2)CC1 [Example 84, 2-{3-[2-amino-6-(1-propionyl-1,2,3,6-tetrahydropyridin-4-yl)-7H-pyrrolo[2,3-d]pyrimidin-4-yl]-2-(hydroxymethyl)phenyl}-6-cyclopropyl-8-fluoroisoquinolin-1(2H)-one]"
–,9.03,8.83,1.6,8.15,"Nc1nc(-c2cccc(-n3ccc4cc(C5CC5)cc(F)c4c3=O)c2CO)c2cc(C3=CCN(C(=O)N4CCCC4)CC3)[nH]c2n1 [Example 88, 2-(3-{2-amino-6-[1-(pyrrolidine-1-carbonyl)-1,2,3,6-tetrahydropyridin-4-yl]-7H-pyrrolo[2,3-d]pyrimidin-4-yl}-2-(hydroxymethyl)phenyl)-6-cyclopropyl-8-fluoroisoquinolin-1(2H)-one]"
–,9.47,9.15,2.1,8.00,"CS(=O)(=O)N1CC=C(c2cc3c(-c4cccc(-n5ccc6cc(C7CC7)cc(F)c6c5=O)c4CO)nc(N)nc3[nH]2)CC1 [Example 89, 2-(3-{2-amino-6-[1-(methylsulfonyl)-1,2,3,6-tetrahydropyridin-4-yl]-7H-pyrrolo[2,3-d]pyrimidin-4-yl}-2-(hydroxymethyl)phenyl)-6-cyclopropyl-8-fluoroisoquinolin-1(2H)-one]"
–,9.33,8.96,2.1,7.42,"CCN1CC=C(c2cc3c(-c4cccc(-n5ccc6cc(C7CC7)cc(F)c6c5=O)c4CO)nc(N)nc3[nH]2)CC1 [Example 91, 2-{3-[2-amino-6-(1-ethyl-1,2,3,6-tetrahydropyridin-4-yl)-7H-pyrrolo[2,3-d]pyrimidin-4-yl]-2-(hydroxymethyl)phenyl}-6-cyclopropyl-8-fluoroisoquinolin-1(2H)-one]"
